pEC50: −log10 of the molar value.
System: Daudi Cell Culture
Experiment: Compound primary screening in Daudi cell culture
Type: cell-based
Conditions: Homo sapiens, 168 h; Daudi cells, 1250 cells per well, reads on Day 7
Description: Compound Primary Screening
1. Materials and Supplies
Plastic ware and consumables needed for this experiment include: Cell Culture media; Evaporation Buffer media; 100% DMSO; 96 well U-bottom sterile culture plates; 250 mL bottle; 1.5 mL Opaque amber epi tubes; Epi Tube rack; 300 mL reservoirs; 25 mL reservoir; 25 mL serological pipette tips; 5 mL serological pipette tips P1000 Pipette Tips; and P200 Pipette Tips.
Equipment needed for this experiment include: Viaflo 384 liquid handler; Eppendorf serological pipette; Eppendorf P1000 Pipette; and Eppendorf P200 Pipette
Daudi Cell Culture is also needed for this experiment.
Lastly, compounds (e.g., the compounds of this invention) to be tested are needed.
All steps were performed in a sterile environment inside the Biosafety cabinet.
A 96 well u-bottom plate was prepared by writing the experiment number, plate number, date and initials in the top right corner of the plate lid. With a sterile 300 ml reservoir, and 25 ml serological pipette, evaporation buffer media was pipetted into reservoir in 25 ml increments. Using the liquid handler, 150 ul of evaporation buffer media was pipetted from reservoir into rows A and H, and Columns 1 and 12 of the 96 well u-bottom plate. Cell cultures were counted to obtain the density of cells per ml, and the culture viability. The cell density information was used to obtain 1,000,000 cells from culture using a 5 mL serological pipette into an epi tube. The cell density information from the culture was used to calculate the number of cells and volume of media needed for the assay to seed 1250 cells in 130 ul of media per available culture well in the 96 well u-bottom plate. Rows B through F were used for cells (50 wells in total), with row G left for an empty media control. The calculation was overestimated by 10 mL to account for the dead volume in the 300 ml reservoir. Once the media volume was calculated, the appropriate volume of media was pipetted in 25 mL increments into the 250 mL bottle using a 25 mL serological pipette. The 250 ml bottle was capped tightly, and placed into a 37° C. water bath for 2 minutes. While the culture media was warming, 10 mL of fresh media was pipetted from the 500 mL culture media bottle into a sterile 25 mL reservoir. Using the Eppendorf multichannel pipette, 130 ul of media was pipetted from the 25 mL reservoir into row G of the 96 well u-bottom plate. Once the 250 mL bottle of media was warmed, the volume of culture needed was pipetted into the bottle, and mixed gently with a 25 mL serological pipette as to not create bubbles, and then the contents of the bottle were pipetted into a new 300 mL reservoir. Using the liquid handler, 130 ul of culture was pipetted from the 300 mL reservoir into rows B through F of the 96 well u-bottom plate. Once the culture was added, the plate was placed into a 37° C. incubator until the compound master plate was prepared for use.
Two 96 well u-bottom plates were prepared by writing the master plate name in the upper right corner of the plate lid. Labeling one DMSO master and the other Media Master. The compounds of interest were obtained from the laboratory freezer, and placed into a 25 well storage box with a lid, and set the box aside. The compounds were vortexed after thawing but before use. Using an automatic multichannel pipette, 20 ul of 100% DMSO was pipetted into wells B3-B11 through G3-G11 of the DMSO master plate. For each compound on the master plate, 50 ul of the compound were pipetted in the appropriate well of row 2 (reference plate map to determine appropriate well). A serial dilution was prepared beginning by aspirating 20 ul from row 2 and mixing with row 3, repeating until row 11 was reached. Using the liquid handler, 194 ul of Daudi media was dispensed into wells B2-B11 through G2-G11 of the Media master plate. Using the liquid handler, 6 ul from the DMSO master plate was aspirated and dispensed into the media master plate, mixing 100 ul twice. […]

Structure (SMILES)	pEC50
CC(=O)Nc1ccc(-c2cnc(-c3ccc(NC(=S)NC(C)C)cc3)s2)c(S(=O)(=O)NCCOCCO)c1 [Compound D26]	< 5.00
COCCNS(=O)(=O)c1cc(NC(C)=O)ccc1-c1cnc(-c2ccc(NC(=S)NC(C)C)cc2)s1 [Compound D27]	< 5.00
CC(=O)Nc1ccc(-c2cnc(-c3ccc(NC(=S)NC(C)C)cc3)s2)c(S(=O)(=O)NCCO)c1 [Compound D28]	< 5.00
CNCCNS(=O)(=O)c1cc(NC(C)=O)ccc1-c1cnc(-c2ccc(NC(=S)NC(C)C)cc2)s1 [Compound D29]	< 5.00
CC(=O)Nc1ccc(-c2cnc(-c3ccc(NC(=S)NC(C)C)cc3)s2)c(S(=O)(=O)NC(C)(C)C)c1 [Compound D30]	> 5.30
CC(C)OC(=O)Nc1ccc(-c2ncc(-c3ccc(NS(=O)(=O)c4ccccc4)cc3S(=O)(=O)NC(C)(C)C)s2)cc1 [Compound E1]	< 5.00
CC(C)OC(=O)Nc1ccc(-c2ncc(-c3ccc(NS(=O)(=O)Cc4ccccc4)cc3S(=O)(=O)NC(C)(C)C)s2)cc1 [Compound E2]	< 5.00
CC(=O)Nc1ccc(-c2cnc(-c3ccc(NC(C)=O)cc3S(=O)(=O)NC(C)(C)C)s2)c(S(=O)(=O)NC(C)(C)C)c1 [Compound E3]	> 5.00
CC(=O)Nc1ccc(-c2ncc(-c3ccc(N)cc3S(=O)(=O)NC(C)(C)C)s2)cc1 [Compound E4]	< 5.00
CC(=O)Nc1ccc(-c2ncc(-c3ccc(NC(=S)NC(C)C)cc3S(=O)(=O)NC(C)(C)C)s2)cc1 [Compound E5]	> 5.00
CC(=O)Nc1ccc(-c2cnc(-c3ccc(N)cc3S(=O)(=O)NC(C)(C)C)s2)c(S(=O)(=O)NC(C)(C)C)c1 [Compound E8]	< 5.00
CC(=O)Nc1ccc(-c2cnc(-c3ccc(NC(=S)NC(C)C)cc3S(=O)(=O)NC(C)(C)C)s2)c(S(=O)(=O)NC(C)(C)C)c1 [Compound E9]	> 6.00
CC(=O)Nc1ccc(-c2cnc(-c3ccc(NC(=O)OC(C)C)cc3)s2)c(S(=O)(=O)NC(C)(C)C)c1 [Compound E11]	> 5.30
CC(C)(C)NS(=O)(=O)c1cc(Nc2nccs2)ccc1-c1cnc(-c2ccc(N)cc2)s1 [Compound E12]	< 5.00
CC(=O)N(C)c1ccc(-c2cnc(-c3ccc(N)cc3)s2)c(S(=O)(=O)NC(C)(C)C)c1 [Compound E14]	< 5.00
CC(=O)N(C)c1ccc(-c2cnc(-c3ccc(NC(=S)NC(C)C)cc3)s2)c(S(=O)(=O)NC(C)(C)C)c1 [Compound E15]	< 5.00
Cn1ccnc1Nc1ccc(-c2cnc(-c3ccc(N)cc3)s2)c(S(=O)(=O)NC(C)(C)C)c1 [Compound E16]	< 5.00
CC(C)NC(=S)Nc1ccc(-c2ncc(-c3ccc(Nc4nccn4C)cc3S(=O)(=O)NC(C)(C)C)s2)cc1 [Compound E17]	< 5.00
Cn1ccnc1Nc1ccc(-c2cnc(-c3ccc(N)cc3)s2)c(S(N)(=O)=O)c1 [Compound E18]	< 5.00
CC(C)NC(=S)Nc1ccc(-c2ncc(-c3ccc(Nc4nccn4C)cc3S(N)(=O)=O)s2)cc1 [Compound E19]	< 5.00
CC(=O)N(C)c1ccc(-c2cnc(-c3ccc(NC(=O)OC(C)C)cc3)s2)c(S(=O)(=O)NC(C)(C)C)c1 [Compound E20]	> 5.00
CC(=O)Nc1ccc(-c2ncc(-c3ccc(NC(=S)NC(C)C)cc3S(=O)(=O)NC(C)(C)C)s2)c(S(=O)(=O)NC(C)(C)C)c1 [Compound E21]	> 5.30
CC(=O)Nc1ccc(-c2cnc(-c3ccc(NC(=O)OCC(C)C)cc3)s2)c(S(=O)(=O)NC(C)(C)C)c1 [Compound G1]	> 5.30
COC(=O)Nc1ccc(-c2ncc(-c3ccc(NC(C)=O)cc3S(=O)(=O)NC(C)(C)C)s2)cc1 [Compound G2]	> 5.00

Structure (SMILES)	pEC50
CCOC(=O)Nc1ccc(-c2ncc(-c3ccc(NC(C)=O)cc3S(=O)(=O)NC(C)(C)C)s2)cc1 [Compound G3]	> 6.00
CC(=O)Nc1ccc(-c2cnc(-c3ccc(NC(=O)CC(C)C)cc3)s2)c(S(=O)(=O)NC(C)(C)C)c1 [Compound G4]	< 5.00
CC(=O)Nc1ccc(-c2cnc(-c3ccc(NS(C)(=O)=O)cc3)s2)c(S(=O)(=O)NC(C)(C)C)c1 [Compound G5]	< 5.00
CC(=O)Nc1ccc(-c2cnc(-c3ccc(NS(=O)(=O)c4ccccc4)cc3)s2)c(S(=O)(=O)NC(C)(C)C)c1 [Compound G6]	> 5.00
CCS(=O)(=O)Nc1ccc(-c2ncc(-c3ccc(NC(C)=O)cc3S(=O)(=O)NC(C)(C)C)s2)cc1 [Compound G7]	< 5.00
COCCS(=O)(=O)Nc1ccc(-c2ncc(-c3ccc(NC(C)=O)cc3S(=O)(=O)NC(C)(C)C)s2)cc1 [Compound G8]	< 5.00
CNS(=O)(=O)Nc1ccc(-c2ncc(-c3ccc(NC(C)=O)cc3S(=O)(=O)NC(C)(C)C)s2)cc1 [Compound G9]	< 5.00
CC(=O)Nc1ccc(-c2cnc(-c3ccc(NC(=O)NC(C)C)cc3)s2)c(S(=O)(=O)NC(C)(C)C)c1 [Compound G10]	> 5.00
CC(=O)Nc1ccc(-c2cnc(-c3ccc(NC(=O)OC(C)(C)C)cc3)s2)c(S(=O)(=O)NC(C)(C)C)c1 [Compound G11, tert-butyl N-[4-[5-[4-acetamido-2-(tert-butylsulfamoyl)phenyl]thiazol-2-yl]phenyl]carbamate]	> 5.30
CC(C)OC(=O)Nc1ccc(-c2ncc(-c3ccc(NC(=O)[C@@H]4CCCN4)cc3S(=O)(=O)NC(C)(C)C)s2)cc1 [Compound H1]	> 5.30
CC(C)OC(=O)Nc1ccc(-c2ncc(-c3ccc(NC(=O)[C@H]4CCCN4)cc3S(=O)(=O)NC(C)(C)C)s2)cc1 [Compound H2]	> 5.30
CC(C)OC(=O)Nc1ccc(-c2ncc(-c3ccc(NC(=O)C4CC4)cc3S(=O)(=O)NC(C)(C)C)s2)cc1 [Compound H3]	> 5.30
CCC(=O)Nc1ccc(-c2cnc(-c3ccc(NC(=O)OC(C)C)cc3)s2)c(S(=O)(=O)NC(C)(C)C)c1 [Compound H4]	> 6.00
CC(C)OC(=O)Nc1ccc(-c2ncc(-c3ccc(NC(=O)OCc4ccccc4)cc3S(=O)(=O)NC(C)(C)C)s2)cc1 [Compound H5]	> 6.00
CCOC(=O)Nc1ccc(-c2cnc(-c3ccc(NC(=O)OC(C)C)cc3)s2)c(S(=O)(=O)NC(C)(C)C)c1 [Compound H6]	> 6.00
COC(=O)Nc1ccc(-c2cnc(-c3ccc(NC(=O)OC(C)C)cc3)s2)c(S(=O)(=O)NC(C)(C)C)c1 [Compound H7]	> 6.00
CC(C)OC(=O)Nc1ccc(-c2ncc(-c3ccc(NC(=O)OC(C)C)cc3S(=O)(=O)NC(C)(C)C)s2)cc1 [Compound H8]	> 6.00
CC(C)OC(=O)Nc1ccc(-c2ncc(-c3ccc(NC(=O)c4ccccc4)cc3S(=O)(=O)NC(C)(C)C)s2)cc1 [Compound H9]	> 6.00
CC(C)OC(=O)Nc1ccc(-c2ncc(-c3ccc(NC(=O)C(C)C)cc3S(=O)(=O)NC(C)(C)C)s2)cc1 [Compound H10]	> 6.00
CC(C)OC(=O)Nc1ccc(-c2ncc(-c3ccc(NS(C)(=O)=O)cc3S(=O)(=O)NC(C)(C)C)s2)cc1 [Compound H11]	< 5.00
CCNc1ccc(-c2cnc(-c3ccc(NC(=O)OC(C)C)cc3)s2)c(S(=O)(=O)NC(C)(C)C)c1 [Compound I1, isopropyl N-[4-[5-[2-(tert-butylsulfamoyl)-4-(ethylamino)phenyl]thiazol-2-yl]phenyl]carbamate]	> 5.30
CC(C)OC(=O)Nc1ccc(-c2ncc(-c3ccc(O)cc3S(=O)(=O)NC(C)(C)C)s2)cc1 [Compound I2, isopropyl N-[4-[5-[2-(tert-butylsulfamoyl)-4-hydroxy-phenyl]thiazol-2-yl]phenyl]carbamate]	> 5.30
CC(C)OC(=O)Nc1ccc(-c2ncc(-c3ccc(NCC(F)(F)F)cc3S(=O)(=O)NC(C)(C)C)s2)cc1 [Compound I3, isopropyl N-[4-[5-[2-(tert-butylsulfamoyl)-4-(2,2,2-trifluoroethylamino)phenyl]thiazol-2-yl]phenyl]carbamate]	> 5.30
CC(C)OC(=O)Nc1ccc(-c2ncc(-c3ccc(NC4(C)COC4)cc3S(=O)(=O)NC(C)(C)C)s2)cc1 [Compound I4]	> 5.30
